Measured values reported in patent US20110301146A1 (ONCOTHERAPY SCIENCE, INC., priority 2008, published 2011).

Target: T1, GSK-3beta (Homo sapiens, UniProt P49841)
T1 construct: purchased Invitrogen
Assay: Z'-LYTE kinase assay (FRET, SER/THR 9 peptide)
Assay type: biochemical
Settings: 0.04 ng/micro-l GSK-3beta (Invitrogen), 2 micro-M SER/THR 9 peptide, 15 micro-M ATP, 1 hour at room temperature, 1% DMSO
Procedure: The Z′-LYTE kinase assay kit employs a fluorescence resonance energy transfer (FRET) between two fluorophores, coumarin and fluorescein, attached to each end of a substrate peptide.
For 0% phosphorylation control, ATP was omitted from the reaction mixture. For 100% phosphorylation control, SER/THR 9 phosphopeptide was used in place of the SER/THR 9 peptide. Following 1 hour incubation at room temperature, the reaction was stopped by the addition of half assay volume of development solution and further incubated for 1 hour at room temperature. […] The extent of phosphorylation was determined according to the 0% and 100% phosphorylation control samples using the following equation: […]
IC50 values were calculated by nonlinear four parameter fit using SigmaPlot, version 10.0 (Systat Software, Inc.).

T1 sequence (P49841 whole entry): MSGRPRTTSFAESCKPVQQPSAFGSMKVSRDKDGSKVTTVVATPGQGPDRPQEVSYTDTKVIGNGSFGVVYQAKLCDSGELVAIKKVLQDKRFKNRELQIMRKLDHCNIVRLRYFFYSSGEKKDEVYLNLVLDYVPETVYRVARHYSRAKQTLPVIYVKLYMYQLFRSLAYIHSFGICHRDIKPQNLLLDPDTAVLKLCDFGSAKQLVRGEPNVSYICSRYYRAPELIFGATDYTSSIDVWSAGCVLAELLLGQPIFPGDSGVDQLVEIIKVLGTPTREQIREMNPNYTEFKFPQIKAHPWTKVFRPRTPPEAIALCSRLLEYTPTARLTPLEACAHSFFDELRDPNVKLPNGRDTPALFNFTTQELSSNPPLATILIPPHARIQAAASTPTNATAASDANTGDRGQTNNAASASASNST

Row | Structure (SMILES) | IC50 [nM]
1 | CN1CCCC(NC(=O)c2ccc(O)c3[nH]c(C4CC4)nc23)C1 (stereo not drawn) [Example 8, 2-cyclopropyl-4-hydroxy-N-(1-methylpiperidin-3-yl)-1H-benzo[d]imidazole-7-carboxamide] | 1300
2 | O=C(c1ccc(O)c2[nH]c(-c3cccs3)nc12)N1CCNCC1 [Example 21, (7-hydroxy-2-[thiophen-2-yl]-1H-benzo[d]imidazol-4-yl)(piperazin-1-yl)methanone] | 22000
3 | O=C(NC1CCNC1)c1ccc(O)c2[nH]c(C3CC3)nc12 (stereo not drawn) [Example 12, 2-cyclopropyl-4-hydroxy-N-(pyrrolidin-3-yl)-1H-benzo[d]imidazole-7-carboxamide] | 210
4 | O=C(NCC1CCCNC1)c1ccc(O)c2[nH]c(C3CC3)nc12 (stereo not drawn) [Example 6, 2-Cyclopropyl-4-hydroxy-N-(piperidin-3-yl-methyl)-1H-benzo[d]imidazole-7-carboxamide] | 1600
5 | O=C(NCC1CCCCN1)c1ccc(O)c2[nH]c(-c3cccs3)nc12 (stereo not drawn) [Example 45, 7-Hydroxy-N-(piperidin-2-ylmethyl)-2-(thiophen-2-yl)-1H-benzo[d]imidazole-4-carboxamide] | 240
6 | O=C(NC1CCCNC1)c1ccc(O)c2[nH]c(C3CC3)nc12 (stereo not drawn) [Example 11, 2-cyclopropyl-4-hydroxy-N-(piperidin-3-yl)-1H-benzo[d]imidazole-7-carboxamide] | 190
7 | CC(C)(C)OC(=O)N1CCC[C@H](NC(=O)c2ccc(O)c3[nH]c(-c4ccc(Br)s4)nc23)C1 [Example 50, (S)-tert-Butyl 3-(2-(5-bromothiophen-2-yl)-7-hydroxy-1H-benzo[d]imidazole-4-carboxamido)piperidine-1-carboxylate] | 3400
8 | O=C(NC1CCCNC1)c1ccc(O)c2[nH]c(C3CC4CCC3C4)nc12 (stereo not drawn) [Example 49, 2-(Bicyclo[2.2.1]heptan-2-yl)-7-hydroxy-N-(piperidin-3-yl)-1H-benzo[d]imidazole-4-carboxamide] | 230
9 | O=C(NCC1CCCCN1)c1ccc(O)c2[nH]c(-c3ccccc3)nc12 (stereo not drawn) [Example 18, 4-Hydroxy-2-phenyl-N-(piperidin-2-ylmethyl)-1H-benzo[d]imidazole-7-carboxamide] | 1500
10 | NC12CC3CC(C1)CC(NC(=O)c1ccc(O)c4[nH]c(C5CC6CCC5C6)nc14)(C3)C2 (stereo not drawn) [Example 53] | 1900
11 | O=C(NCCN1CCNCC1)c1ccc(O)c2[nH]c(-c3cccs3)nc12 [Example 36, 7-Hydroxy-N-[2-(piperazin-1-yl)ethyl]-2-(thiophen-2-yl)-1H-benzo[d]imidazole-4-carboxamide] | 210
12 | NC12CC3CC(C1)CC(NC(=O)c1ccc(O)c4[nH]c(-c5cccs5)nc14)(C3)C2 [Example 54, 2-(Thiophene-2-yl)-7-hydroxy-N-(adamantate-3-ylamino)-1H-benzo[d]imidazole-4-carboxamide] | 330
13 | O=C(NCC1CCNCC1)c1ccc(O)c2[nH]c(C3CC3)nc12 [Example 5, 2-Cyclopropyl-4-hydroxy-N-(piperidin-4-ylmethyl)-1H-benzo[d]imidazole-7-carboxamide] | 320
14 | CN1CCCC(NC(=O)c2ccc(O)c3[nH]c(-c4cccs4)nc23)C1 (stereo not drawn) [Example 41, 7-Hydroxy-N-(1-methylpiperidin-3-yl)-2-(thiophen-2-yl)-1H-benzo[d]imidazole-4-carboxamide] | 180
15 | NC1CCCC(NC(=O)c2ccc(O)c3[nH]c(C4CC5CCC4C5)nc23)C1 (stereo not drawn) [Example 55, N-(3-Aminocyclohexyl)-2-(bicyclo[2.2.1]heptan-2-yl)-7-hydroxy-1H-benzo[d]imidazole-4-carboxamide] | 250
16 | N[C@H]1CC[C@@H](CNC(=O)c2ccc(O)c3[nH]c(C4CC5CCC4C5)nc23)CC1 (stereo partly drawn) [Example 56, N-{[(cis)-4-Aminocyclohexyl]methyl}-2-(bicyclo[2.2.1]heptan-2-yl)-7-hydroxy-1H-benzo[d]imidazole-4-carboxamide] | 240

Stronger by IC50, values ahead:

Row | IC50 [nM] | Structure (SMILES)
17 | 140 | O=C(NCC1CNC1)c1ccc(O)c2[nH]c(C3CC3)nc12 [Example 13, N-(azetidin-3-ylmethyl)-2-cyclopropyl-4-hydroxy-1H-benzo[d]imidazole-7-carboxamide]
18 | 110 | O=C(NC1CCNC1)c1ccc(O)c2[nH]c(-c3cccs3)nc12 (stereo not drawn) [Example 44, 7-Hydroxy-N-(pyrrolidin-3-yl)-2-(thiophen-2-yl)-1H-benzo[d]imidazole-4-carboxamide]
19 | 100 | O=C(NCC1CCCCN1)c1ccc(O)c2[nH]c(C3CC3)nc12 (stereo not drawn) [Example 7, 2-Cyclopropyl-4-hydroxy-N-(piperidin-2-ylmethyl)-1H-benzo[d]imidazole-7-carboxamide]
20 | 68 | O=C(NCC1CCCNC1)c1ccc(O)c2[nH]c(C3CC4CCC3C4)nc12 (stereo not drawn) [Example 48, 2-(Bicyclo[2.2.1]heptan-2-yl)-7-hydroxy-N-(piperidin-3-ylmethyl)-1H-benzo[d]imidazole-4-carboxamide]
21 | 51 | N[C@H]1CC[C@H](NC(=O)c2ccc(O)c3[nH]c(-c4cccs4)nc23)CC1 [Example 47, N-(4-Aminocyclohexyl)-7-hydroxy-2-(thiophen-2-yl)-1H-benzo[d]imidazole-4-carboxamide]
22 | 130 | O=C(NCC1CCCNC1)c1ccc(O)c2[nH]c(-c3ccccc3)nc12 (stereo not drawn) [Example 19, 4-hydroxy-2-phenyl-N-(piperidin-3-ylmethyl)-1H-benzo[d]imidazole-7-carboxamide]
23 | 8.6 | O=C(NCC1CCCNC1)c1ccc(O)c2[nH]c(-c3cccs3)nc12 (stereo not drawn) [Example 39, 7-Hydroxy-N-(piperidin-3-ylmethyl)-2-(thiophen-2-yl)-1H-benzo[d]imidazole-4-carboxamide]
24 | 12 | O=C(NC1CCC(C(=O)O)CC1)c1ccc(O)c2[nH]c(-c3cccs3)nc12 (stereo not drawn) [Example 72, 4-[7-hydroxy-2-(thiophen-2-yl)-1H-benzo[d]imidazole-4-carboxamido]cyclohexanecarboxylic Acid]
25 | 120 | O=C(N[C@H]1CCCNC1)c1ccc(O)c2[nH]c(C3CCCC3)nc12 [Example 16, (S)-2-Cyclopentyl-4-hydroxy-N-(piperidin-3-yl)-1H-benzo[d]imidazole-7-carboxamide]
26 | 25 | O=C(NCC1CCNC1)c1ccc(O)c2[nH]c(-c3cccs3)nc12 (stereo not drawn) [Example 46, 7-Hydroxy-N-(pyrrolidin-3-ylmethyl)-2-(thiophen-2-yl)-1H-benzo[d]imidazole-4-carboxamide]
27 | 150 | O=C(N[C@H]1CCCNC1)c1ccc(O)c2[nH]c(C3CC4CCC3C4)nc12 (stereo partly drawn) [Example 52, 2-(Bicyclo[2.2.1]heptan-2-yl)-7-hydroxy-N-((S)-piperidin-3-yl)-1H-benzo[d]imidazole-4-carboxamide]
28 | 100 | O=C(N[C@H]1CCCNC1)c1ccc(O)c2[nH]c(C3CC3)nc12 [Example 9, (S)-2-cyclopropyl-4-hydroxy-N-(piperidin-3-yl)-1H-benzo[d]imidazole-7-carboxamide]
29 | 100 | O=C(NC[C@@H]1CCCNC1)c1ccc(O)c2[nH]c(Cc3cccs3)nc12 [Example 58, (R)-7-hydroxy-N-(piperidin-3-ylmethyl)-2-(thiophen-2-ylmethyl)-1H-benzo[d]imidazole-4-carboxamide]
30 | 26 | O=C(N[C@H]1CC[C@H](O)CC1)c1ccc(O)c2[nH]c(-c3cccs3)nc12 [Example 20, 7-Hydroxy-N-(4-hydroxycyclohexyl)-2-(thiophen-2-yl)-1H-benzo[d]imidazole-4-carboxamide]
31 | 170 | O=C(N[C@H]1CCCNC1)c1ccc(O)c2[nH]c(Cc3cccs3)nc12 [Example 59, (S)-7-hydroxy-N-(piperidin-3-yl)-2-(thiophen-2-ylmethyl)-1H-benzo[d]imidazole-4-carboxamide]
32 | 16 | O=C(N[C@H]1CCCNC1)c1ccc(O)c2[nH]c(-c3ccc(Br)s3)nc12 [Example 51, (S)-2-(5-bromothiophen-2-yl)-7-hydroxy-N-(piperidin-3-yl)-1H-benzo[d]imidazole-4-carboxamide]
33 | 100 | O=C(NCC1CCNCC1)c1ccc(O)c2[nH]c(-c3cccs3)nc12 [Example 42, 7-Hydroxy-N-(piperidin-4-ylmethyl)-2-(thiophen-2-yl)-1H-benzo[d]imidazole-4-carboxamide]
34 | 43 | O=C(NCC1CNC1)c1ccc(O)c2[nH]c(-c3cccs3)nc12 [Example 43, N-(Azetidin-3-ylmethyl)-7-hydroxy-2-(thiophen-2-yl)-1H-benzo[d]imidazole-4-carboxamide]
35 | 130 | O=C(NCC1CCCNC1)c1ccc(O)c2[nH]c(C3CCCC3)nc12 (stereo not drawn) [Example 15, 2-Cyclopentyl-4-hydroxy-N-(piperidin-3-ylmethyl)-1H-benzo[d]imidazole-7-carboxamide]
36 | 120 | O=C(N[C@H]1CCCNC1)c1ccc(O)c2[nH]c(-c3ccccc3)nc12 [Example 17, (S)-4-Hydroxy-2-phenyl-N-(piperidin-3-yl)-1H-benzo[d]imidazole-7-carboxamide]
37 | 160 | O=C(NC[C@H]1CCCNC1)c1ccc(O)c2[nH]c(Cc3cccs3)nc12 [Example 60, (S)-7-hydroxy-N-(piperidin-3-ylmethyl)-2-(thiophen-2-ylmethyl)-1H-benzo[d]imidazole-4-carboxamide]
38 | 38 | O=C(N[C@H]1CCCNC1)c1ccc(O)c2[nH]c(-c3ccc(N4CCNCC4)s3)nc12 [Example 57, (S)-7-hydroxy-2-(5-(piperazin-1-yl)thiophen-2-yl)-N-(piperidin-3-yl)-1H-benzo[d]imidazole-4-carboxamide]
39 | 30 | O=C(NC1CCNCC1)c1ccc(O)c2[nH]c(C3CC3)nc12 [Example 10, 2-cyclopropyl-4-hydroxy-N-(piperidin-4-yl)-1H-benzo[d]imidazole-7-carboxamide]
